Measured values from ChEMBL document CHEMBL1145395, “De novo design of selective antibiotic peptides by incorporation of unnatural amino acids” (J Med Chem, 2007).
≈ marks a conversion by molar mass, not a printed value. Calls of active or inactive are those of the source. The calls are words filed in the database; no cut-off is given here. Non-standard residues stand in square brackets, D forms with d. Residues, ends and D or L forms follow the SMILES beside them. ξ: configuration not given here. Pro(3ξ,4ξ-(CH2)4) = O=C(O)[C@H]1NCC2CCCCC21; Oic = O=C(O)[C@@H]1C[C@@H]2CCCC[C@@H]2N1; Phe(4-F) = N[C@@H](Cc1ccc(F)cc1)C(=O)O; Tic = O=C(O)[C@@H]1Cc2ccccc2CN1; Dap = NC[C@H](N)C(=O)O; βAla = NCCC(=O)O

Columns and labels:
[1] = tested on: Bacillus subtilis; experiment: Antibacterial activity against Bacillus subtilis ATCC 43223; format: functional
[2] = tested on: Salmonella typhimurium; experiment: Antibacterial activity against Salmonella Typhimurium ATCC 13311; format: functional, Salmonella enterica subsp. enterica serovar Typhimurium; conditions: for MIC: Salmonella enterica; for Activity: Salmonella enterica subsp. enterica serovar Typhimurium
[3] = tested on: Mycobacterium; experiment: Antibacterial activity against Mycobacterium ranae ATCC 110; format: functional
[4] = tested on: Staphylococcus aureus; experiment: Antibacterial activity against methicillin/gentamicin/tetracycline resistant Staphylococcus aureus ATCC 33592; format: functional
[5] = Toxicity to mouse RBC assessed as hemolytic activity at 100 uM; format: cell-based, Erythrocyte; conditions: red blood cells, read-out: Activity

Compound | MIC [1] | MIC [2] | MIC [3] | MIC [4] | hemolysis at 100 µM [5] | Activity [2] | Activity [4]
CC(=O)NCC(=O)N[C@@H](Cc1ccc(F)cc1)C(=O)N1Cc2ccccc2C[C@H]1C(=O)N1CC2CCCCC2[C@H]1C(=O)NCC(=O)N[C@@H](CCCCN)C(=O)N1Cc2ccccc2C[C@H]1C(=O)N1CC2CCCCC2[C@H]1C(=O)NCC(=O)N[C@@H](Cc1ccc(F)cc1)C(=O)N1Cc2ccccc2C[C@H]1C(=O)N1CC2CCCCC2[C@H]1C(=O)NCC(=O)N[C@@H](CCCCN)C(=O)N1Cc2ccccc2C[C@H]1C(=O)N[C@@H](CCCCN)C(=O)N[C@@H](CCCCN)C(=O)N[C@@H](CCCCN)C(=O)N[C@@H](CCCCN)C(N)=O (stereo partly drawn) (Ac-G[Phe(4-F)][Tic][Pro(3ξ,4ξ-(CH2)4)]GK[Tic][Pro(3ξ,4ξ-(CH2)4)]G[Phe(4-F)][Tic][Pro(3ξ,4ξ-(CH2)4)]GK[Tic]KKKK-NH2) | 0.3 µM (≈ 0.743 µg/mL) | 30 µM (≈ 74.3 µg/mL) | 3 µM (≈ 7.43 µg/mL) | 10 µM (≈ 24.8 µg/mL) |  |  | 
CSCC[C@H](NC(=O)[C@H](CC(C)C)NC(=O)[C@H](CCC(=O)O)NC(=O)[C@@H]1C2CCCCC2CN1C(=O)[C@@H]1Cc2ccccc2CN1C(=O)[C@H](CCCCN)NC(=O)CNC(=O)[C@H](CC(C)C)NC(=O)[C@H](CCCCN)NC(=O)CNC(=O)[C@@H]1C2CCCCC2CN1C(=O)[C@@H]1Cc2ccccc2CN1C(=O)[C@H](CO)NC(=O)[C@H](CC(N)=O)NC(=O)[C@H](CCSC)NC(=O)[C@H](CC(C)C)NC(=O)[C@@H](N)CCC(=O)O)C(=O)N[C@@H](CO)C(N)=O (stereo partly drawn) (H-ELMNS[Tic][Pro(3ξ,4ξ-(CH2)4)]GKLGK[Tic][Pro(3ξ,4ξ-(CH2)4)]ELMS-NH2) |  |  |  |  | 23% | inactive | inactive
CC(=O)NCC(=O)N[C@@H](Cc1ccccc1)C(=O)N1Cc2ccccc2C[C@H]1C(=O)N1CC2CCCCC2[C@H]1C(=O)NCC(=O)N[C@@H](CCCCN)C(=O)N1Cc2ccccc2C[C@H]1C(=O)N1CC2CCCCC2[C@H]1C(=O)NCC(=O)N[C@@H](Cc1ccccc1)C(=O)N1Cc2ccccc2C[C@H]1C(=O)N1CC2CCCCC2[C@H]1C(=O)NCC(=O)N[C@@H](CCCCN)C(=O)N1Cc2ccccc2C[C@H]1C(=O)N[C@@H](CCCCN)C(=O)N[C@@H](CCCCN)C(=O)N[C@@H](CCCCN)C(=O)N[C@@H](CCCCN)C(=O)N[C@@H](CCCCN)C(N)=O (stereo partly drawn) (Ac-GF[Tic][Pro(3ξ,4ξ-(CH2)4)]GK[Tic][Pro(3ξ,4ξ-(CH2)4)]GF[Tic][Pro(3ξ,4ξ-(CH2)4)]GK[Tic]KKKKK-NH2) | 1 µM (≈ 2.57 µg/mL) | 10 µM (≈ 25.7 µg/mL) | 3 µM (≈ 7.71 µg/mL) | 3 µM (≈ 7.71 µg/mL) |  |  | 
CC(C)C[C@H](NC(=O)CNC(=O)[C@H](CCCCN)NC(=O)CN)C(=O)N1Cc2ccccc2C[C@H]1C(=O)N1[C@H](C(=O)NCC(=O)N[C@@H](CCCNC(=N)N)C(=O)N2Cc3ccccc3C[C@H]2C(=O)N2[C@H](C(=O)NCC(=O)N[C@@H](Cc3ccccc3)C(=O)N3Cc4ccccc4C[C@H]3C(=O)N3[C@H](C(=O)NCC(=O)N[C@@H](CCCNC(=N)N)C(=O)N4Cc5ccccc5C[C@H]4C(=O)N4[C@H](C(=O)NCC(=O)N[C@@H](Cc5ccccc5)C(=O)N5Cc6ccccc6C[C@H]5C(=O)N5[C@H](C(=O)NCC(=O)N[C@@H](CCCNC(=N)N)C(=O)N6Cc7ccccc7C[C@H]6C(=O)N6[C@H](C(=O)NCC(=O)N[C@@H](CCCCN)C(=O)N[C@@H](CCCNC(=N)N)C(N)=O)C[C@@H]7CCCC[C@@H]76)C[C@@H]6CCCC[C@@H]65)C[C@@H]5CCCC[C@@H]54)C[C@@H]4CCCC[C@@H]43)C[C@@H]3CCCC[C@@H]32)C[C@@H]2CCCC[C@@H]21 (H-GKGL[Tic][Oic]GR[Tic][Oic]GF[Tic][Oic]GR[Tic][Oic]GF[Tic][Oic]GR[Tic][Oic]GKR-NH2) | 1 µM (≈ 3.62 µg/mL) | 100 µM (≈ 362 µg/mL) |  |  |  |  | 
CC(=O)NCC(=O)N[C@@H](Cc1ccccc1)C(=O)N1CC2CCCCC2[C@H]1C(=O)NCC(=O)N[C@@H](CCCCN)C(=O)N1CC2CCCCC2[C@H]1C(=O)NCC(=O)N[C@@H](Cc1ccccc1)C(=O)N1CC2CCCCC2[C@H]1C(=O)NCC(=O)N[C@@H](CCCCN)C(=O)N[C@@H](CCCCN)C(=O)N[C@@H](CCCCN)C(=O)N[C@@H](CCCCN)C(=O)N[C@@H](CCCCN)C(N)=O (stereo partly drawn) (Ac-GF[Pro(3ξ,4ξ-(CH2)4)]GK[Pro(3ξ,4ξ-(CH2)4)]GF[Pro(3ξ,4ξ-(CH2)4)]GKKKKK-NH2) | 3 µM (≈ 5.41 µg/mL) | 100 µM (≈ 180 µg/mL) | 100 µM (≈ 180 µg/mL) |  |  |  | 
CC(C)C[C@H](NC(=O)CNC(=O)[C@H](CCCCN)NC(=O)CN)C(=O)N1Cc2ccccc2C[C@H]1C(=O)N1CC2CCCCC2[C@H]1C(=O)N[C@@H](Cc1ccccc1)C(=O)N[C@@H](CCCCN)C(=O)N1Cc2ccccc2C[C@H]1C(=O)N1CC2CCCCC2[C@H]1C(=O)N[C@@H](CCCCN)C(=O)N[C@@H](Cc1ccccc1)C(=O)N1Cc2ccccc2C[C@H]1C(=O)N1CC2CCCCC2[C@H]1C(=O)N[C@@H](Cc1ccccc1)C(=O)N[C@@H](CCCCN)C(=O)N1Cc2ccccc2C[C@H]1C(=O)N1CC2CCCCC2[C@H]1C(=O)N[C@@H](CCCCN)C(=O)N[C@@H](Cc1ccccc1)C(=O)N1Cc2ccccc2C[C@H]1C(=O)N1CC2CCCCC2[C@H]1C(=O)N[C@@H](Cc1ccccc1)C(=O)N[C@@H](CCCCN)C(=O)N1Cc2ccccc2C[C@H]1C(=O)N1CC2CCCCC2[C@H]1C(=O)N[C@@H](Cc1ccccc1)C(=O)N[C@@H](CCCCN)C(=O)N[C@@H](CCCNC(=N)N)C(N)=O (stereo partly drawn) (H-GKGL[Tic][Pro(3ξ,4ξ-(CH2)4)]FK[Tic][Pro(3ξ,4ξ-(CH2)4)]KF[Tic][Pro(3ξ,4ξ-(CH2)4)]FK[Tic][Pro(3ξ,4ξ-(CH2)4)]KF[Tic][Pro(3ξ,4ξ-(CH2)4)]FK[Tic][Pro(3ξ,4ξ-(CH2)4)]FKR-NH2) | 3 µM (≈ 12.1 µg/mL) | 100 µM (≈ 404 µg/mL) |  | 30 µM (≈ 121 µg/mL) |  |  | 
CC(=O)NCCC(=O)N[C@@H](Cc1ccc(F)cc1)C(=O)N1Cc2ccccc2C[C@H]1C(=O)N1CC2CCCCC2[C@H]1C(=O)NCCC(=O)N[C@@H](CN)C(=O)N1Cc2ccccc2C[C@H]1C(=O)N1CC2CCCCC2[C@H]1C(=O)NCCC(=O)N[C@@H](Cc1ccc(F)cc1)C(=O)N1Cc2ccccc2C[C@H]1C(=O)N1CC2CCCCC2[C@H]1C(=O)NCCC(=O)N[C@@H](CN)C(=O)N1Cc2ccccc2C[C@H]1C(=O)N[C@@H](CN)C(=O)N[C@@H](CN)C(=O)N[C@@H](CN)C(=O)N[C@@H](CN)C(N)=O (stereo partly drawn) (Ac-[βAla][Phe(4-F)][Tic][Pro(3ξ,4ξ-(CH2)4)][βAla][Dap][Tic][Pro(3ξ,4ξ-(CH2)4)][βAla][Phe(4-F)][Tic][Pro(3ξ,4ξ-(CH2)4)][βAla][Dap][Tic][Dap][Dap][Dap][Dap]-NH2) | 0.3 µM (≈ 0.684 µg/mL) | 3 µM (≈ 6.84 µg/mL) | 100 µM (≈ 228 µg/mL) | 30 µM (≈ 68.4 µg/mL) |  |  | 
CC(=O)NCC(=O)N[C@@H](Cc1ccccc1)C(=O)NCC(=O)N1CC2CCCCC2[C@H]1C(=O)NCC(=O)N[C@@H](CCCCN)C(=O)NCC(=O)N1CC2CCCCC2[C@H]1C(=O)NCC(=O)N[C@@H](Cc1ccccc1)C(=O)NCC(=O)N1CC2CCCCC2[C@H]1C(=O)NCC(=O)N[C@@H](CCCCN)C(=O)NCC(=O)N[C@@H](CCCCN)C(=O)N[C@@H](CCCCN)C(=O)N[C@@H](CCCCN)C(=O)N[C@@H](CCCCN)C(N)=O (stereo partly drawn) (Ac-GFG[Pro(3ξ,4ξ-(CH2)4)]GKG[Pro(3ξ,4ξ-(CH2)4)]GFG[Pro(3ξ,4ξ-(CH2)4)]GKGKKKK-NH2) | 30 µM (≈ 61 µg/mL) |  | 100 µM (≈ 203 µg/mL) | 3 µM (≈ 6.1 µg/mL) |  |  | 
CSCC[C@H](NC(=O)[C@H](CC(C)C)NC(=O)[C@H](CCC(=O)O)NC(=O)[C@@H]1C2CCCCC2CN1C(=O)[C@@H]1Cc2ccccc2CN1C(=O)[C@H](CCCCN)NC(=O)CNC(=O)[C@@H]1C2CCCCC2CN1C(=O)[C@@H]1Cc2ccccc2CN1C(=O)[C@H](CC(C)C)NC(=O)CNC(=O)[C@@H]1C2CCCCC2CN1C(=O)[C@@H]1Cc2ccccc2CN1C(=O)[C@H](CCCCN)NC(=O)CNC(=O)[C@@H]1C2CCCCC2CN1C(=O)[C@@H]1Cc2ccccc2CN1C(=O)[C@H](CC(C)C)NC(=O)CNC(=O)[C@@H]1C2CCCCC2CN1C(=O)[C@@H]1Cc2ccccc2CN1C(=O)[C@H](CO)NC(=O)[C@H](CC(N)=O)NC(=O)[C@H](CCSC)NC(=O)[C@H](CC(C)C)NC(=O)[C@@H](N)CCC(=O)O)C(=O)N[C@@H](CC(N)=O)C(=O)N[C@@H](CO)C(N)=O (stereo partly drawn) (H-ELMNS[Tic][Pro(3ξ,4ξ-(CH2)4)]GL[Tic][Pro(3ξ,4ξ-(CH2)4)]GK[Tic][Pro(3ξ,4ξ-(CH2)4)]GL[Tic][Pro(3ξ,4ξ-(CH2)4)]GK[Tic][Pro(3ξ,4ξ-(CH2)4)]ELMNS-NH2) |  |  |  |  | 3% | inactive | inactive
CC(C)C[C@H](NC(=O)CNC(=O)[C@H](CCCCN)NC(=O)CN)C(=O)N1Cc2ccccc2C[C@H]1C(=O)N1CC2CCCCC2[C@H]1C(=O)NCC(=O)N[C@@H](CC(C)C)C(=O)N1Cc2ccccc2C[C@H]1C(=O)N1CC2CCCCC2[C@H]1C(=O)NCC(=O)N[C@@H](CCCCN)C(=O)N1Cc2ccccc2C[C@H]1C(=O)N1CC2CCCCC2[C@H]1C(=O)NCC(=O)N[C@@H](CC(C)C)C(=O)N1Cc2ccccc2C[C@H]1C(=O)N1CC2CCCCC2[C@H]1C(=O)NCC(=O)N[C@@H](CCCCN)C(=O)N1Cc2ccccc2C[C@H]1C(=O)N1CC2CCCCC2[C@H]1C(=O)NCC(=O)N[C@@H](CC(C)C)C(=O)N1Cc2ccccc2C[C@H]1C(=O)N1CC2CCCCC2[C@H]1C(=O)NCC(=O)N[C@@H](CCCCN)C(=O)N[C@@H](CCCNC(=N)N)C(N)=O (stereo partly drawn) (H-GKGL[Tic][Pro(3ξ,4ξ-(CH2)4)]GL[Tic][Pro(3ξ,4ξ-(CH2)4)]GK[Tic][Pro(3ξ,4ξ-(CH2)4)]GL[Tic][Pro(3ξ,4ξ-(CH2)4)]GK[Tic][Pro(3ξ,4ξ-(CH2)4)]GL[Tic][Pro(3ξ,4ξ-(CH2)4)]GKR-NH2) |  |  |  | 100 µM (≈ 346 µg/mL) | 100% | inactive | 
CC(C)C[C@H](NC(=O)CNC(=O)[C@H](CCCCN)NC(=O)CN)C(=O)N1Cc2ccccc2C[C@H]1C(=O)N1CC2CCCCC2[C@H]1C(=O)NCC(=O)N[C@@H](CCCCN)C(=O)N1Cc2ccccc2C[C@H]1C(=O)N1CC2CCCCC2[C@H]1C(=O)NCC(=O)N[C@@H](Cc1ccccc1)C(=O)N1Cc2ccccc2C[C@H]1C(=O)N1CC2CCCCC2[C@H]1C(=O)NCC(=O)N[C@@H](CCCCN)C(=O)N1Cc2ccccc2C[C@H]1C(=O)N1CC2CCCCC2[C@H]1C(=O)NCC(=O)N[C@@H](Cc1ccccc1)C(=O)N1Cc2ccccc2C[C@H]1C(=O)N1CC2CCCCC2[C@H]1C(=O)NCC(=O)N[C@@H](CCCCN)C(=O)N1Cc2ccccc2C[C@H]1C(=O)N1CC2CCCCC2[C@H]1C(=O)NCC(=O)N[C@@H](CCCCN)C(=O)N[C@@H](CCCNC(=N)N)C(N)=O (stereo partly drawn) (H-GKGL[Tic][Pro(3ξ,4ξ-(CH2)4)]GK[Tic][Pro(3ξ,4ξ-(CH2)4)]GF[Tic][Pro(3ξ,4ξ-(CH2)4)]GK[Tic][Pro(3ξ,4ξ-(CH2)4)]GF[Tic][Pro(3ξ,4ξ-(CH2)4)]GK[Tic][Pro(3ξ,4ξ-(CH2)4)]GKR-NH2) |  |  |  |  | 33.4% |  | 
